“And” between values parts separate entries of the source, which are not always exact repeats. Equal values may be shown once.

In this assay the target is T1, partially purified telomerase from a nuclear extract of HEK293 cells (Homo sapiens, UniProt O14746).
T1 construct: partially purified telomerase from a nuclear extract of HEK293 cells; endogenous in cells; host or cells: HEK293 cells (nuclear extract, partially purified)
The experiment in a line: In vitro telomerase inhibition, membrane hybridization assay (method of U.S. Pat. No. 5,760,062). Type of assay: biochemical. The note with it: replicate determinations listed in one cell. The method, then:
Alternatively, telomerase inhibitory activity of the compounds was measured in accordance with a known method (U.S. Pat. No. 5,760,062). That is, a dimethyl sulfoxide (DMSO) solution of each agent was mixed with partially purified telomerase from a nuclear extract of HEK293 cells and incubated in the presence of an oligodeoxynucleotide to be used as the substrate and deoxynucleotide triphosphate. The obtained reacted product (DNA having a telomere sequence) was adsorbed on a membrane, and hybridization was carried out using a labeled oligonucleotide probe having a sequence complementary to the telomere sequence. The inhibition ratio was calculated based on the ratio of the signal of label on the membrane in the presence of the agent to the signal of label in the absence of the agent (control). Also, concentration of each agent which inhibits 50% of the enzyme activity based on the control was used as IC50.

T1 sequence (O14746 whole entry): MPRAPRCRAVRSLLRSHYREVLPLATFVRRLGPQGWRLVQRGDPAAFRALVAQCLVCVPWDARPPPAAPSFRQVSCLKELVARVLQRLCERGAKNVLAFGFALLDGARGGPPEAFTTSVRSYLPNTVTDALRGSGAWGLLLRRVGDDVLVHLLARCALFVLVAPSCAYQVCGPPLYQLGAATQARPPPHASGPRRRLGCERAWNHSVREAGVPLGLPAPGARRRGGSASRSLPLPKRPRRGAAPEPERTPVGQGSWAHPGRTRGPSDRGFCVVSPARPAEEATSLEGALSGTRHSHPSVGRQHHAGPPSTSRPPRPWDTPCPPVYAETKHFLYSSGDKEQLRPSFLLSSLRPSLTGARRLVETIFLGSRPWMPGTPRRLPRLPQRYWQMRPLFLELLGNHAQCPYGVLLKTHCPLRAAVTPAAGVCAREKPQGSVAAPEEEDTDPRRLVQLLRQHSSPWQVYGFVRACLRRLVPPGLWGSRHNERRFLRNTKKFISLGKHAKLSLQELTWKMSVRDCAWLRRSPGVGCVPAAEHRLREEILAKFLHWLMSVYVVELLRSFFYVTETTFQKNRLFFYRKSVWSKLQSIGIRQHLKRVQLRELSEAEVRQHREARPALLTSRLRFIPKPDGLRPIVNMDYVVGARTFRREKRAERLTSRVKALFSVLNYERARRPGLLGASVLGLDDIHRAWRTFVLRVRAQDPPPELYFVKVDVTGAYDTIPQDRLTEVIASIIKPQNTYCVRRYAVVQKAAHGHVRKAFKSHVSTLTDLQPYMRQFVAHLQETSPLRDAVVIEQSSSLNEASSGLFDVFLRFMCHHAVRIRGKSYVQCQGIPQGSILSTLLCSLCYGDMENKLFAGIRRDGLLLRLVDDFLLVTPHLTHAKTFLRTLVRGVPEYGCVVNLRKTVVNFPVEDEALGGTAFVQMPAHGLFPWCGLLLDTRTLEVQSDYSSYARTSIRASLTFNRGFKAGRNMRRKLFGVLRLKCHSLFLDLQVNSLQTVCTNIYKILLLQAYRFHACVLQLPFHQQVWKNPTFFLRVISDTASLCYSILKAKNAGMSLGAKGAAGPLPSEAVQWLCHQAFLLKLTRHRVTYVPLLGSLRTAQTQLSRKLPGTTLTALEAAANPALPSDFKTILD

Regarding `O=C1NC(=O)/C(=C/c2ccc(-c3nc4c(C(F)(F)F)cc(Cl)cc4[nH]3)cc2)S1` [Example 5, 6-Chloro-2-[4-[(2,4-dioxothiazolidin-5-ylidene)methyl]phenyl]-4-(trifluoromethyl)benzimidazole], the IC50 was 4980 nM and 2950 nM.
For `O=C1NC(=O)/C(=C/c2ccc(-c3nc4cc(Cl)c(Cl)cc4[nH]3)o2)S1` [Example 30], the half-inhibitory concentration (IC50) is 5190 nM and 2760 nM.
With `O=C1NC(=O)/C(=C/c2cc3cc(-c4nc5cc(Cl)c(Cl)cc5[nH]4)ccc3[nH]2)S1` [Example 46, 5,6-Dichloro-2-[2-[(2,4-dioxothiazolidin-5-ylidene)methyl]indol-5-yl]benzimidazole], the IC50 is 5400 nM. This lies in the single-digit micromolar range.
`O=C1NC(=O)/C(=C/c2ccc(-c3nc4ccccc4[nH]3)cc2)S1` [Example 2, 2-[4-[(2,4-Dioxothiazolidin-5-ylidene)methyl]phenyl]benzimidazole]: the IC50 is 1050 nM and 1520 nM.
With `CCOC(=O)Cn1c(-c2ccc(/C=C3\SC(=O)NC3=O)cc2)nc2cc(Cl)c(Cl)cc21` [Example 20, Ethyl [5,6-Dichloro-2-[4-[(2,4-dioxothiazolidin-5-ylidene)methyl]phenyl]-benzimidazol-1-yl]acetate], the IC50 was 2280 nM and 3260 nM.
On to `Cc1cc2nc(-c3ccc(/C=C4\SC(=O)NC4=O)cc3)n(Cc3ccc(Cl)c(Cl)c3)c2cc1C` [Example 15, 1-(3,4-Dichlorobenzyl)-5,6-dimethyl-2-[4-[(2,4-dioxothiazolidin-5-ylidene)methyl]phenyl]benzimidazole], for which the half-inhibitory concentration (IC50) was 3010 nM and 2430 nM.
Regarding `Cc1cc2nc(-c3ccc(/C=C4\SC(=O)NC4=O)cc3)[nH]c2cc1C` [Example 3, 5,6-Dimethyl-2-[4-[(2,4-dioxothiazolidin-5-ylidene)methyl]phenyl]benzimidazole], the IC50 was 5440 nM and 6200 nM.
As for `O=C1NC(=O)/C(=C/c2ccc(-c3nc4cc(C(=O)c5ccccc5)ccc4[nH]3)cc2)S1` [Example 6, 5-Benzoyl-2-[4-[(2,4-dioxothiazolidin-5-ylidene)methyl]phenyl]benzimidazole], the IC50 was 3040 nM and 3350 nM.
With `O=C1NC(=O)/C(=C/c2ccc(-c3nc4cc(Cl)c(Cl)cc4[nH]3)s2)S1` [Example 32, 5,6-Dichloro-2-[2-[(2,4-dioxothiazolidin-5-ylidene)methyl]thiophen-5-5-yl]benzimidazole], the IC50 was 1960 nM and 1910 nM.
For `O=C1NC(=O)/C(=C/c2cc(Br)c(-c3nc4cc(Cl)c(Cl)cc4[nH]3)s2)S1` [Example 29, 5,6-Dichloro-2-[3-bromo-5-[(2,4-dioxothiazolidin-5-ylidene)methyl]thiophen-2-yl]benzimidazole], the IC50 is 1890 nM and 2260 nM.
In turn, `O=C1NC(=O)/C(=C/c2ccc3[nH]c(-c4nc5cc(Cl)c(Cl)cc5[nH]4)cc3c2)S1` [Example 45, 5,6-Dichloro-2-[5-[(2,4-dioxothiazolidin-5-ylidene)methyl]indol-2-yl]benzimidazole] had an IC50 of 610 nM.
As to `CN(C)CCn1c(-c2ccc(/C=C3\SC(=O)NC3=O)cc2)nc2cc(Cl)c(Cl)cc21` [Example 21, 5,6-Dichloro-1-(2-dimethyaminoethyl)-2-[4-[(2,4-dioxothiazolidin-5-ylidene)methyl]phenyl]benzimidazole], the IC50 is 19200 nM and 15900 nM.
Take `Cn1c(/C=C2\SC(=O)NC2=O)ccc1-c1nc2cc(Cl)c(Cl)cc2[nH]1` [Example 33, 2-[2-[(2,4-Dioxothiazolidin-5-ylidene)methyl]-1-methylpyrrol-5-yl]-5,6-dichlorobenzimidazole]: the half-maximal inhibitory concentration (IC50) was 3180 nM and 2470 nM.
Regarding `O=C1NC(=O)/C(=C/c2ccc(-c3nc4cc([N+](=O)[O-])ccc4[nH]3)cc2)S1` [Example 4, 2-[4-[(2,4-Dioxothiazolidin-5-ylidene)methyl]phenyl]-5-nitrobenzimidazole], the IC50 was 4300 nM and 3690 nM.
On to `O=C1NC(=O)C(Cc2ccc(-c3nc4cc(Cl)c(Cl)cc4[nH]3)cc2)S1` (stereo not shown) [Example 28, 2-[4-[(2,4-Dioxothiazolidin-5-yl)methyl]phenyl]-5,6-dichlorobenzimidazole], for which the IC50 was 14500 nM and 15000 nM.
In the case of `O=C1NC(=O)/C(=C/c2ccc3cc(-c4nc5cc(Cl)c(Cl)cc5[nH]4)ccc3c2)S1` [Example 40, 5,6-Dichloro-2-[6-[(2,4-dioxothiazolidin-5-ylidene)methyl]naphth-2-yl]benzimidazole], the IC50 is 290 nM and 550 nM and 510 nM.
For `O=C1NC(=O)/C(=C/c2ccc(-c3nc4cc(Cl)c(Cl)cc4[nH]3)cc2)S1` [Example 1, 5,6-Dichloro-2-[4-[(2,4-dioxothiazolidin-5-ylidene)methyl]phenyl]benzimidazole] the value was 1860 nM and 1100 nM and 1220 nM and 850 nM and 1140 nM; for `O=C1NC(=O)/C(=C/c2ccc(-c3nc4cc(Cl)c(Cl)cc4[nH]3)c3ccccc23)S1` [Example 39, 5,6-Dichloro-2-[4-[(2,4-dioxothiazolidin-5-ylidene)methyl]naphth-1-yl]benzimidazole], 440 nM and 920 nM and 1010 nM; for `O=C1NC(=O)/C(=C/c2ccc(-c3nc4ccccc4n3Cc3ccc(Cl)c(Cl)c3)cc2)S1` [Example 14, 1-(3,4-Dichlorobenzyl)-2-[4-[(2,4-dioxothiazolidin-5ylidene)methyl]-phenyl]benzimidazole], 1610 nM and 1920 nM.
